According to patent US12410160B2 (Gilead Sciences, Inc., priority 2021, dated 2025):
Like-named read-outs stand apart in the source and are kept apart here.

Experiments:
[1] = target: KHK-C expressed in NRK-52E cells (Homo sapiens (Human), UniProt P50053); assay: KHK-C Cell-based Assay (EC50), NRK CTG, fructose-mediated ATP-depletion
[2] = target: human KHK-A (Homo sapiens (Human), UniProt P50053); assay: KHK Biochemical Assay (IC50), ADP-Glo, KHK-A; conditions: average of at least two separate assays
Chain of human KHK-A (P50053 other isoform, or with tags, fused parts or gaps): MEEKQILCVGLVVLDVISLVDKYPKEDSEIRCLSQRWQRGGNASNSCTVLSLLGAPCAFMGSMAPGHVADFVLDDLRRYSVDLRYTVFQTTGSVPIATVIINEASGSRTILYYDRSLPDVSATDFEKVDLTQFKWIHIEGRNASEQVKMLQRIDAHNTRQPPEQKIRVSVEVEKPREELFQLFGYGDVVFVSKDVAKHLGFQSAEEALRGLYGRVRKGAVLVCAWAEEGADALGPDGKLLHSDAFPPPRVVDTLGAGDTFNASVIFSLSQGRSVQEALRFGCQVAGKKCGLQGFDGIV
In short: (§1)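 ADP-Glo luminescence measured ADP made over a 4 h room-temperature reaction of ATP plus fructose, started after 30 min compound–enzyme pre-incubation. Buffer: 50 mM Hepes pH 7.4, 140 mM KCl, 5 mM MgCl2, 0.01% Triton-X. Enzyme was His-tagged, BL21 (DE3)-expressed, Ni-NTA-purified; compounds in 1:3 DMSO dilution series.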

[3] = target: human KHK-C (Homo sapiens (Human), UniProt P50053); assay: KHK Biochemical Assay (IC50), ADP-Glo, KHK-C; conditions: average of at least two separate assays
Chain of human KHK-C (P50053 whole entry): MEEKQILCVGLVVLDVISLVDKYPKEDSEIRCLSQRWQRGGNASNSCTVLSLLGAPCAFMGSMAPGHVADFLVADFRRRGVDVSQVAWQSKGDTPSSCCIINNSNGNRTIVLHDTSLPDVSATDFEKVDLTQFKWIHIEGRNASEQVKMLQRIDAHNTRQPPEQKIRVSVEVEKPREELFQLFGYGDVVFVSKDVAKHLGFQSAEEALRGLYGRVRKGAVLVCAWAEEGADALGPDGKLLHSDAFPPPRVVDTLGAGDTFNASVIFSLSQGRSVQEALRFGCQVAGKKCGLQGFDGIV
In short: as §1

Chain of KHK-C expressed in NRK-52E cells (P50053 whole entry): as above

C[C@H]1[C@H](O)CN1c1nc2c(c(-c3cccc(C4CC4C(=O)O)c3)n1)CCC2 (stereo partly drawn) [Example 47, 2-(3-(2-((2S,3R)-3-hydroxy-2-methylazetidin-1-yl)-6,7-dihydro-5H-cyclopenta[d]pyrimidin-4-yl)phenyl)cyclopropane-1-carboxylic acid]
EC50 [1]: 2370 nM
IC50 ([2]; ADP-Glo): 29.4 nM
IC50 ([3]; ADP-Glo): 15.2 nM

C[C@H]1[C@H](O)CN1c1nc2c(c(-c3ccc4cnc(O)cc4c3)n1)CCC2 [Example 388, 6-[2-[(2S,3R)-3-hydroxy-2-methyl-azetidin-1-yl]-6,7-dihydro-5H-cyclopenta[d]pyrimidin-4-yl]isoquinolin-3-ol]
EC50 [1]: 403 nM
IC50 ([2]; ADP-Glo): 87.7 nM
IC50 ([3]; ADP-Glo): 81.3 nM

C[C@H]1CCN1c1nc2c(c(-c3cccc(C(=O)NCCS(N)(=O)=O)c3)n1)CCC2 [Example 219, 3-[2-[(2S)-2-methylazetidin-1-yl]-6,7-dihydro-5H-cyclopenta[d]pyrimidin-4-yl]-N-(2-sulfamoylethyl)benzamide]
EC50 [1]: 283 nM
IC50 ([2]; ADP-Glo): 17.2 nM
IC50 ([3]; ADP-Glo): 13.1 nM

C[C@H]1CCN1c1nc(-c2ccc(C(N)=O)cc2)c2c(n1)C(F)(F)CC2 [Example 128, (S)-4-(7,7-difluoro-2-(2-methylazetidin-1-yl)-6,7-dihydro-5H-cyclopenta[d]pyrimidin-4-yl)benzamide]
EC50 [1]: 6.3 nM
IC50 ([2]; ADP-Glo): 2.3 nM
IC50 ([3]; ADP-Glo): 2.3 nM

C[C@H]1CCN1c1nc2c(c(-c3ccc4c(c3)[C@]3(C[C@@H]3C(=O)O)C(=O)N4)n1)CCC2 (racemic) [Example 409, rac-(1R,28)-5′-(24(8)-2-methylazetidin-1-yl)-6,7-dihydro-5H-cyclopenta[d]pyrimidin-4-yl)-2′-oxospiro[cyclopropane-1,3′-indoline]-2-carboxylic acid]
EC50 [1]: > 5000 nM
IC50 [2]: 41 nM
IC50 [3]: 34.3 nM

C[C@H]1CCN1c1nc2c(c(-c3ccc4c(c3)CC(C(=O)O)C4)n1)CCC2 (stereo partly drawn) [Example 139, 5-(2-((S)-2-methylazetidin-1-yl)-6,7-dihydro-5H-cyclopenta[d]pyrimidin-4-yl)-2,3-dihydro-1H-indene-2-carboxylic acid]
EC50 [1]: 2490 nM
IC50 ([2]; ADP-Glo): 85.8 nM
IC50 ([3]; ADP-Glo): 55.3 nM

C[C@H]1CCN1c1nc2c(c(-c3ccc4c(=O)[nH][nH]c(=O)c4c3)n1)CCC2 [Example 429, 6-[2-[(2S)-2-methylazetidin-1-yl]-6,7-dihydro-5H-cyclopenta[d]pyrimidin-4-yl]-2,3-dihydrophthalazine-1,4-dione]
EC50 [1]: 1730 nM
IC50 [2]: 48.6 nM
IC50 [3]: 41.6 nM

C[C@H]1CCN1c1nc2c(c(-c3nc4ccccc4n3C)n1)CCC2 [Example 391, 1-methyl-2-[2-[(2S)-2-methylazetidin-1-yl]-6,7-dihydro-5H-cyclopenta[d]pyrimidin-4-yl]benzimidazole]
EC50 [1]: 1810 nM
IC50 ([2]; ADP-Glo): 2190 nM
IC50 ([3]; ADP-Glo): 915 nM

(S)-6-(2-(2-methylazetidin-1-yl)-6,7-dihydro-5H-cyclopenta[d]pyrimidin-4-yl)pyridine-2-sulfonamide [Example 223]
EC50 ([1]; read-out: NRK CTG EC50, NRK-52E cells, fructose-mediated ATP-depletion, Cell-Titer Glo): 74.1 nM
IC50 ([2]; ADP-Glo): 33.7 nM
IC50 ([3]; ADP-Glo): 26.9 nM

C[C@H]1CCN1c1nc2c(c(-c3cccc(C(=O)NCC(=O)O)c3)n1)CCC2 [Example 66, (S)-(3-(2-(2-methylazetidin-1-yl)-6,7-dihydro-5H-cyclopenta[d]pyrimidin-4-yl)benzoyl)glycine]
EC50 [1]: 35500 nM
IC50 ([2]; ADP-Glo): 64.8 nM
IC50 ([3]; ADP-Glo): 54.5 nM

C[C@H]1[C@H](O)CN1c1nc(-c2ccc3c(c2)CC[C@@]32CCC(=O)N2)c2c(n1)C(F)(F)CC2 (single isomer, unassigned) [Example 637]
EC50 [1]: 161 nM
IC50 [2]: 35.1 nM
IC50 [3]: 22.1 nM

C[C@H]1CCN1c1nc2c(c(-c3ccc(C(N)=O)c(NS(C)(=O)=O)c3)n1)CCC2 [Example 320, (S)-4-(2-(2-methylazetidin-1-yl)-6,7-dihydro-5H-cyclopenta[d]pyrimidin-4-yl)-2-(methylsulfonamido)benzamide]
EC50 [1]: 638 nM
IC50 ([2]; ADP-Glo): 210 nM
IC50 ([3]; ADP-Glo): 244 nM

C[C@H]1CCN1c1nc2c(c(-c3cc4c(=O)[nH]ccc4s3)n1)CCC2 [Example 384, 2-[2-[(2S)-2-methylazetidin-1-yl]-6,7-dihydro-5H-cyclopenta[d]pyrimidin-4-yl]-5H-thieno[3,2-c]pyridin-4-one]
EC50 [1]: 19.7 nM
IC50 ([2]; ADP-Glo): 2.9 nM
IC50 ([3]; ADP-Glo): 14.7 nM

NC(=O)c1ccc(-c2nc(N3CC[C@@H]3CO)nc3c2CCC3)cc1 [Example 95, (R)-4-(2-(2-(hydroxymethyl)azetidin-1-yl)-6,7-dihydro-5H-cyclopenta[d]pyrimidin-4-yl)benzamide]
EC50 [1]: 221 nM
IC50 ([2]; ADP-Glo): 60.3 nM
IC50 ([3]; ADP-Glo): 43.1 nM

C[C@H]1CCN1c1nc2c(c(-c3ccc4[nH]ncc4c3)n1)CCC2 [Example 39, (S)-5-(2-(2-methylazetidin-1-yl)-6,7-dihydro-5H-cyclopenta[d]pyrimidin-4-yl)-1H-indazole]
EC50 [1]: 211 nM
IC50 ([2]; ADP-Glo): 86.2 nM
IC50 ([3]; ADP-Glo): 113 nM

C[C@H]1CCN1c1nc2c(c(-c3ccc4c(c3)CC3C(C(=O)O)C43)n1)CCC2 (stereo partly drawn) [Example 136, 4-(2-((S)-2-methylazetidin-1-yl)-6,7-dihydro-5H-cyclopenta[d]pyrimidin-4-yl)-1,1a,6,6a-tetrahydrocyclopropa[a]indene-1-carboxylic acid]
EC50 [1]: 2460 nM
IC50 ([2]; ADP-Glo): 114 nM
IC50 ([3]; ADP-Glo): 62 nM

C[C@@H]1N(c2nc3c(c(-c4ccc(C(N)=O)cc4)n2)CCC3)C[C@@]1(C)O [Example 141]
EC50 [1]: 1260 nM
IC50 ([2]; ADP-Glo): 334 nM
IC50 ([3]; ADP-Glo): 290 nM

C[C@H]1CCN1c1nc2c(c(-c3ccc4c(c3)S(=O)(=O)NC4=O)n1)CCC2 [Example 86, (S)-6-(2-(2-methylazetidin-1-yl)-6,7-dihydro-5H-cyclopenta[d]pyrimidin-4-yl)benzo[d]isothiazol-3(2H)-one 1,1-dioxide]
EC50 [1]: > 5000 nM
IC50 ([2]; ADP-Glo): 50.2 nM
IC50 ([3]; ADP-Glo): 38.6 nM

C[C@H]1CCN1c1nc2c(c(-c3ccc(C4(C(N)=O)CC4)cc3)n1)CCC2 [Example 252, 1-[4-[2-[(2S)-2-methylazetidin-1-yl]-6,7-dihydro-5H-cyclopenta[d]pyrimidin-4-yl]phenyl]cyclopropanecarboxamide]
EC50 [1]: 1670 nM
IC50 ([2]; ADP-Glo): 783 nM
IC50 ([3]; ADP-Glo): 946 nM

C[C@H]1CCN1c1nc2c(c(-c3ccc(C(=O)NCCO)cc3)n1)CCC2 [Example 91, (S)—N-(2-hydroxyethyl)-4-(2-(2-methylazetidin-1-yl)-6,7-dihydro-5H-cyclopenta[d]pyrimidin-4-yl)benzamide]
EC50 [1]: 120 nM
IC50 ([2]; ADP-Glo): 45.2 nM
IC50 ([3]; ADP-Glo): 55.6 nM

N#CCC(N)c1ccc(-c2nc(N3CC[C@@H]3C(F)(F)F)nc3c2CCC3(F)F)cc1 (stereo partly drawn) [Example 803, 3-amino-3-(4-(7,7-difluoro-2-((R)-2-(trifluoromethyl)azetidin-1-yl)-6,7-dihydro-5H-cyclopenta[d]pyrimidin-4-yl)phenyl)propanenitrile]
EC50 [1]: 11.3 nM
IC50 ([2]; ADP-Glo): 0.8 nM
IC50 ([3]; ADP-Glo): 0.5 nM

C[C@H]1CCN1c1nc2c(c(-c3cccc(OC(F)F)c3)n1)CCC2 [Example 258, 4-[3-(difluoromethoxy)phenyl]-2-[(2S)-2-methylazetidin-1-yl]-6,7-dihydro-5H-cyclopenta[d]pyrimidine]
EC50 [1]: 525 nM
IC50 ([2]; ADP-Glo): 2000 nM
IC50 ([3]; ADP-Glo): 2850 nM

C[C@H]1CCN1c1nc2c(c(-c3ccc(C(N)=O)c(C(F)(F)F)c3)n1)CCC2 [Example 316, (S)-4-(2-(2-methylazetidin-1-yl)-6,7-dihydro-5H-cyclopenta[d]pyrimidin-4-yl)-2-(trifluoromethyl)benzamide]
EC50 [1]: 35 nM
IC50 ([2]; ADP-Glo): 19 nM
IC50 ([3]; ADP-Glo): 42.9 nM

C[C@H]1CCN1c1nc2c(c(-c3cccc([C@H]4C[C@@H]4C#N)c3)n1)CCC2 (stereo in doubt) [Example 454, trans-2-[3-[2-[(2S)-2-methylazetidin-1-yl]-6,7-dihydro-5H-cyclopenta[d]pyrimidin-4-yl]phenyl]cyclopropanecarbonitrile]
EC50 [1]: 546 nM
IC50 [2]: 459 nM
IC50 [3]: 489 nM

C[C@H]1CCN1c1nc2c(c(-c3ccc4c(c3)CC(CC(N)=O)C4)n1)CCC2 (stereo partly drawn) [Example 135, 2-(5-(2-((S)-2-methylazetidin-1-yl)-6,7-dihydro-5H-cyclopenta[d]pyrimidin-4-yl)-2,3-dihydro-1H-inden-2-yl)acetamide]
EC50 [1]: 277 nM
IC50 ([2]; ADP-Glo): 126 nM
IC50 ([3]; ADP-Glo): 111 nM

C[C@H]1CCN1c1nc2c(c(-c3ccc4c(c3)C(=O)NC4)n1)CCC2 [Example 207]
EC50 [1]: 55.8 nM
IC50 ([2]; ADP-Glo): 23.2 nM
IC50 ([3]; ADP-Glo): 28.2 nM

C[C@H]1[C@H](F)CN1c1nc2c(c(-c3cccc(C4CC4C(=O)O)c3)n1)CCC2 (stereo partly drawn) [Example 48]
EC50 [1]: 77.1 nM
IC50 ([2]; ADP-Glo): 7.1 nM
IC50 ([3]; ADP-Glo): 5.3 nM

C[C@H]1CCN1c1nc2c(c(-c3cc(S(N)(=O)=O)c(F)cc3F)n1)CCC2 [Example 130, (S)-2,4-difluoro-5-(2-(2-methylazetidin-1-yl)-6,7-dihydro-5H-cyclopenta[d]pyrimidin-4-yl)benzenesulfonamide]
EC50 [1]: > 5000 nM
IC50 ([2]; ADP-Glo): > 5000 nM
IC50 ([3]; ADP-Glo): > 5000 nM

C[C@H]1[C@H](O)CN1c1nc2c(c(-c3ccc(C(N)=O)cc3)n1)CC2 [Example 125]
EC50 [1]: 3560 nM
IC50 ([2]; ADP-Glo): 932 nM
IC50 ([3]; ADP-Glo): 572 nM

C[C@H]1CCN1c1nc2c(c(-c3cccc(CN4CCCC4)c3)n1)CCC2 [Example 348, 2-[(2S)-2-methylazetidin-1-yl]-4-[3-(pyrrolidin-1-ylmethyl)phenyl]-6,7-dihydro-5H-cyclopenta[d]pyrimidine]
EC50 [1]: 35.1 nM
IC50 ([2]; ADP-Glo): 24.2 nM
IC50 ([3]; ADP-Glo): 22.7 nM
